# Key:
# [1] = Body weight change in MV4;11 nude mouse xenograft model (side effects); assay type: in vivo; settings: 21 days, tumor-bearing nude mice
# Procedure: Tumor-bearing mice were treated for 3 weeks intravenously either with vehicle or with 10 mg/kg or 20 mg/kg Volasertib, respectively, once weekly. Median changes in body weight compared to day 1 are plotted over time. Day 1 was the first day, day 21 the last day of the experiment.
# (§1) Mice were 8-9 week-old athymic female BomTac: NMRI-Foxn1^nu purchased from Taconic, Denmark. After arrival in the animal facility, mice were allowed to adjust to ambient conditions for at least 3 days before they were used for experiments. They were housed in Macrolon® type II cages in groups of 5 under standardized conditions at 21.5±1.5° C. temperature and 55±10% humidity. Standardized diet (PROVIMI KLIBA) and autoclaved tap water were provided ad libitum.
# Volasertib (BI 6727) was dissolved in hydrochloric acid (0.1 N), diluted with 0.9% NaCl and injected intravenously into the tail vein. An administration volume of 10 ml per kg body weight was used. The solution was freshly made up each injection day.
# (§2) The tumor diameter was measured three times a week with a caliper. The volume of each tumor [in mm^3] was calculated according to the formula “tumor volume=length*diameter^2*π/6”. To monitor side effects of treatment, mice were inspected daily for abnormalities and body weight was determined three times a week. […]
# [2] = tested on: human AML cell line MV4;11; test: Nude mouse xenograft model derived from human AML cell line MV4;11: tumor growth; assay type: in vivo; settings: 21 days, MV4;11 xenograft in nude mice
# Procedure: Tumor-bearing mice were treated for 3 weeks intravenously either with vehicle or once weekly with 10 mg/kg or 20 mg/kg Volasertib (BI 6727), respectively. Median tumor volumes are plotted over time. Day 1 was the first day, day 21 the last day of the experiment. Efficacy results from this xenograft model are considered valid for MDS.
# MV4;11 (CRL-9591) cells were obtained from ATCC. According to the Catalogue of Somatic Mutations in Cancer of the Wellcome Trust Sanger Institute, UK, this cell line carries a mutation in the FLT3 gene. Cells were cultured in T175 tissue culture flasks at 37° C. and 5% CO2. The medium used was IMDM supplemented with 10% fetal calf serum, 1% NEAA, 1% sodium pyruvate and 1% glutamine.
# as §1, with “Standardized diet (PROVIMI KLIBA) and autoclaved tap water were provided ad libitum.” left out
# as §2
structure (smiles),measurement,setting,value
"CC[C@@H]1C(=O)N(C)c2cnc(Nc3ccc(C(=O)N[C@H]4CC[C@H](N5CCN(CC6CC6)CC5)CC4)cc3OC)nc2N1C(C)C [Volasertib, N-[trans-4-[4-(cyclopropylmethyl)-1-piperazinyl]cyclohexyl]-4-[[(7R)-7-ethyl-5,6,7,8-tetrahydro-5-methyl-8-(1-methylethyl)-6-oxo-2-pteridinyl]amino]-3-methoxy-benzamide]",body weight gain (side effect profile),[1]; 10 mg/kg once a week i.v.,body weight gain was comparable to vehicle
same,body weight gain (side effect profile),[1]; 20 mg/kg once a week i.v.,body weight gain was comparable to vehicle
same,median T/C (ratio of median tumor volume of treated vs. control tumors),[2]; 10 mg/kg once a week i.v.,76%
same,median T/C (ratio of median tumor volume of treated vs. control tumors),[2]; 20 mg/kg once a week i.v.,38%

# Reference: patent US9956225B2, “Treatment of myelodysplastic syndrome” (Boehringer Ingelheim International GmbH, priority 2013, dated 2018)
